“And” between values parts separate entries of the source, which are not always exact repeats. Equal entries are not always repeated.
How the values were obtained:
normal rats = test: Effect on blood pressure of normal rats by single oral administration; format: in vivo, Wistar rats; conditions: for inhibition in vivo at 0.5 mg/kg / inhibition in vivo at 1 mg/kg / inhibition in vivo at 2 mg/kg / change in vivo at 0.5 mg/kg / change in vivo at 1 mg/kg / change in vivo at 2 mg/kg: Rattus norvegicus, po, single, normal rats; for inhibition in vivo at 0.5 mg/kg / inhibition in vivo at 1 mg/kg / inhibition in vivo at 2 mg/kg: 8 h, read-out: blood pressure reduction at 8 h after the administration; for inhibition in vivo at 0.5 mg/kg / change in vivo at 0.5 mg/kg: 0.5 mg/kg p.o.; for inhibition in vivo at 1 mg/kg / change in vivo at 1 mg/kg: 1.0 mg/kg p.o.; for inhibition in vivo at 2 mg/kg / change in vivo at 2 mg/kg: 2.0 mg/kg p.o.; for change in vivo at 0.5 mg/kg / change in vivo at 1 mg/kg / change in vivo at 2 mg/kg: read-out: variations on heart rate
[1] = tested on: renovascular hypertensive rats; test: Effect on reducing blood pressure of renovascular hypertensive rats by single oral administration; format: in vivo, Wistar rats; conditions: for change in vivo at 0.5 mg/kg / inhibition in vivo at 0.5 mg/kg / change in vivo at 1 mg/kg / inhibition in vivo at 1 mg/kg / change in vivo at 2 mg/kg / inhibition in vivo at 2 mg/kg: Rattus norvegicus, single oral administration; for change in vivo at 0.5 mg/kg / change in vivo at 1 mg/kg / change in vivo at 2 mg/kg: RHR, read-out: Variations on heart rate; for inhibition in vivo at 0.5 mg/kg / inhibition in vivo at 1 mg/kg / inhibition in vivo at 2 mg/kg: two-kidney one-clip RHR, measured 1-10 h, read-out: Maximum blood pressure reduction

Row | Molecule | inhibition in vivo at 0.5 mg/kg (normal rats) | inhibition in vivo at 1 mg/kg (normal rats) | inhibition in vivo at 2 mg/kg (normal rats) | change in vivo at 0.5 mg/kg (normal rats) | change in vivo at 1 mg/kg (normal rats) | change in vivo at 2 mg/kg (normal rats) | change in vivo at 0.5 mg/kg [1] | inhibition in vivo at 0.5 mg/kg [1] | change in vivo at 1 mg/kg [1] | inhibition in vivo at 1 mg/kg [1] | change in vivo at 2 mg/kg [1] | inhibition in vivo at 2 mg/kg [1] | blood pressure reduction at 8 h after the administration (normal rats; rat, in vivo) | Maximum blood pressure reduction ([1]; rat, in vivo) | Variations on heart rate ([1]; rat, in vivo)
1 | CCOC(=O)C(=O)OC(C)C(=O)COC(=O)c1cccc2nc(OCC)n(Cc3ccc(-c4ccccc4-c4noc(=O)[nH]4)cc3)c12 (stereo not drawn) [QR01015] | 3.7 ± 2.6% | 2.3 ± 1.8% | 1.8 ± 2.4% | 3% | 1% | -3 ± 3% | 4% | 10 ± 1.5% | 2% | 12 ± 2% | 3% | 18 ± 3.5% | – | – | –
2 | 1-(6-methypyridazine-2-methoxy-carbonyloxy)ethyl-2-ethoxy-1-{[2′-(5-oxo-4,5-dihydro-1,2,4-oxadiazole)-3-yl)biphenyl-4-yl]methyl}-1H-benzimidazole-7-carboxylate [QR01029] | – | – | – | – | – | – | – | – | – | – | – | – | 4.2 ± 3.2% and 5.8 ± 2.2% and 3.4 ± 4.8% | 12 ± 2.1% and 15 ± 4.3% and 24 ± 5.2% | −4 ± 3% and −5 ± 2% and −8 ± 2%
3 | CCOc1nc2cccc(C(=O)OC(C)OC(=O)OCc3ccn(C)c3)c2n1Cc1ccc(-c2ccccc2-c2noc(=O)[nH]2)cc1 (stereo not drawn) [QR01033] | 2.3 ± 3.2% | 6.4 ± 2.9% | 4.2 ± 5% | -3 ± 4% | -5 ± 3% | -1 ± 7% | -8 ± 2% | 19 ± 2.1% | -15 ± 6% | 26 ± 3.7% | -19 ± 7% | 32 ± 4% | – | – | –
4 | CCOc1nc2cccc(C(=O)OCc3oc(=O)c(=O)oc3C)c2n1Cc1ccc(-c2ccccc2-c2noc(=O)[nH]2)cc1 [QR01014] | 2.9 ± 3.4% | 2.7 ± 3.6% | 4.6 ± 3.2% | -4 ± 2% | -3 ± 3% | 4% | -2 ± 3% | 16 ± 3.5% | -4 ± 2% | 21 ± 4.3% | -4 ± 5% | 26 ± 2.1% | – | – | –
5 | CCOc1nc2cccc(C(=O)OCCOC(C)=O)c2n1Cc1ccc(-c2ccccc2-c2noc(=O)[nH]2)cc1 [QR01004] | 7.5 ± 1.4% | 6.7 ± 1.3% | 5.7 ± 2.6% | -1 ± 2% | -2 ± 1% | 3% | 0% | 7 ± 1.2% | -5 ± 3% | 10 ± 2.3% | -3 ± 1% | 12 ± 3.4% | – | – | –

Source: patent US9708306B2, “Benzimidazole derivatives and preparation process and pharmaceutical uses thereof” (WUHAN LL SCIENCE AND TECHNOLOGY DEVELOPMENT CO., LTD, priority 2015, dated 2017)
